From ChEMBL document CHEMBL5724914, “Linking interpersonal differences in gut microbiota composition and drug biotransformation activity” (2024) come the findings set out here.

Data set [1] in a line: The drug is tested on Z-024 corresponding to pig gut metagenome with ENA study accession number: PRJEB37062 and ENA sample accession number: ERS12561823 for biotransformation under anaerobic condition. The drug concentrations were measured over 9 timepoints collected between 0 and 24 hours of incubation by liquid-chromatography-coupled mass spectrometry (LC–MS). Particulars: 2 µM.

Data set [2] can be described thus: The drug is tested on Z-012 corresponding to metagenome with ENA study accession number: PRJEB37062 and ENA sample accession number: ERS12561812 for biotransformation under anaerobic condition. The drug concentrations were measured over 9 timepoints collected between 0 and 24 hours of incubation by liquid-chromatography-coupled mass spectrometry (LC–MS). The following applies: 2 µM.

Data set [3] is described as follows: The drug is tested on Z-006 corresponding to mouse gut metagenome with ENA study accession number: PRJEB37062 and ENA sample accession number: ERS12561806 for biotransformation under anaerobic condition. The drug concentrations were measured over 9 timepoints collected between 0 and 24 hours of incubation by liquid-chromatography-coupled mass spectrometry (LC–MS). Particulars: 2 µM.

A short description of data set [4]: The drug is tested on Z-002 corresponding to rabbit gut metagenome with ENA study accession number: PRJEB37062 and ENA sample accession number: ERS12561802 for biotransformation under anaerobic condition. The drug concentrations were measured over 9 timepoints collected between 0 and 24 hours of incubation by liquid-chromatography-coupled mass spectrometry (LC–MS). The following applies: 2 µM.

Data set [5] in a line: The drug is tested on WLS-170 corresponding to human gut metagenome with ENA study accession number: PRJEB37062 and ENA sample accession number: ERS12561762 for biotransformation under anaerobic condition. The drug concentrations were measured over 9 timepoints collected between 0 and 24 hours of incubation by liquid-chromatography-coupled mass spectrometry (LC–MS). Particulars: 2 µM.

For data set [6] the following is noted: human gut metagenome, 24 h, 2 µM.
For data set [7] the following is noted: human gut metagenome, 24 h, 2 µM. This is another data set of the same source.
The conditions of data set [8]: human gut metagenome, 24 h, 2 µM. This is another data set of the same source.
For data set [9] the following is noted: human gut metagenome, 24 h, 2 µM. This is another data set of the same source.
Also: call rule not given here.

For `CC(=O)Nc1ccc(OC(C)=O)cc1` [DIACETAMATE], the “Bacterial Biotransformation” value in [1], in data set [2], in data set [3], in data set [4], in data set [5] and in [6] was “Compound metabolized” in each case. Also, the “Bacterial Biotransformation” value in data set [7], in data set [8] and in [9] was “Compound metabolized” in each case.

Turning to `CCN(CC)CCOC(=O)C1(C2CCCCC2)CCCCC1` [DICYCLOMINE], the “Bacterial Biotransformation” value is “Compound metabolized” in data set [1]; “Compound metabolized” in data set [2]; “Compound NOT metabolized” in data set [3]; “Compound metabolized” in data set [4]; “Compound metabolized” in data set [5]; “Compound NOT metabolized” in data set [6]. The figures for the “Bacterial Biotransformation” value in data set [7], in [8] and in data set [9] were “Compound metabolized”, “Compound metabolized” and “Compound NOT metabolized”, respectively.

`COc1ccc([C@@H]2Sc3ccccc3N(CCN(C)C)C(=O)[C@@H]2OC(C)=O)cc1` [DILTIAZEM]: the “Bacterial Biotransformation” value was “Compound NOT metabolized” in [1]; “Compound metabolized” in [2]; “Compound NOT metabolized” in [3]; “Compound metabolized” in [4]; “Compound metabolized” in [5]; “Compound NOT metabolized” in data set [6]. The entries for the “Bacterial Biotransformation” value in data set [7], in [8] and in [9] were “Compound metabolized”, “Compound NOT metabolized” and “Compound metabolized”, respectively.

As for `OCCN(CCO)c1nc(N2CCCCC2)c2nc(N(CCO)CCO)nc(N3CCCCC3)c2n1` [DIPYRIDAMOLE], the “Bacterial Biotransformation” value is “Compound metabolized” in data set [1]; “Compound NOT metabolized” in [2]; “Compound NOT metabolized” in data set [3]; “Compound metabolized” in data set [4]; “Compound metabolized” in data set [5]; “Compound metabolized” in data set [6]. Besides, the results for the “Bacterial Biotransformation” value in data set [7], in [8] and in [9] were “Compound metabolized”, “Compound metabolized” and “Compound NOT metabolized”, respectively.

Regarding `COc1cc2nc(N3CCN(C(=O)C4COc5ccccc5O4)CC3)nc(N)c2cc1OC.CS(=O)(=O)O` (stereo not drawn) [DOXAZOSIN MESYLATE], the “Bacterial Biotransformation” value in data set [1] is given as “Compound NOT metabolized”; in data set [2] it was “Compound NOT metabolized”; in [3] it was “Compound NOT metabolized”; in [4], “Compound NOT metabolized”; in [5], “Compound metabolized”; in [6], “Compound metabolized”. The “Bacterial Biotransformation” value in data set [7], in data set [8] and in data set [9] was “Compound NOT metabolized” each time.

On to `CN(C)CCOC(C)(c1ccccc1)c1ccccn1.O=C(O)CCC(=O)O` (stereo not drawn) [DOXYLAMINE SUCCINATE], for which the “Bacterial Biotransformation” value in [1], in data set [2], in [3], in data set [4], in data set [5] and in [6] was “Compound NOT metabolized” in each case. Further, the “Bacterial Biotransformation” value in data set [7], in [8] and in data set [9] was “Compound NOT metabolized” each time.

Take `Br.CN1CCC[C@@H]1Cc1c[nH]c2ccc(CCS(=O)(=O)c3ccccc3)cc12` [ELETRIPTAN HYDROBROMIDE]: the “Bacterial Biotransformation” value in data set [1] is listed as “Compound NOT metabolized”; in [2] it was “Compound NOT metabolized”; in data set [3], “Compound NOT metabolized”; in [4] it was “Compound metabolized”; in [5], “Compound metabolized”; in data set [6], “Compound NOT metabolized”. Also, the “Bacterial Biotransformation” value in data set [7] is “Compound metabolized”; in [8], “Compound NOT metabolized”; in data set [9] it was “Compound NOT metabolized”.

Turning to `CCOc1ccc2nc(S(N)(=O)=O)sc2c1` [ETHOXZOLAMIDE], the “Bacterial Biotransformation” value is listed as “Compound NOT metabolized” in data set [1]; “Compound NOT metabolized” in data set [2]; “Compound NOT metabolized” in data set [3]; “Compound NOT metabolized” in data set [4]; “Compound metabolized” in [5]; “Compound NOT metabolized” in data set [6]. Further, the “Bacterial Biotransformation” value in data set [7], in data set [8] and in data set [9] was “Compound NOT metabolized” throughout.

As to `CCc1cccc2c3c([nH]c12)C(CC)(CC(=O)O)OCC3` (stereo not drawn) [ETODOLAC], the “Bacterial Biotransformation” value in data set [1] is “Compound NOT metabolized”; in data set [2], “Compound NOT metabolized”; in data set [3], “Compound NOT metabolized”; in data set [4], “Compound NOT metabolized”; in data set [5], “Compound metabolized”; in data set [6], “Compound NOT metabolized”. For the same molecule, the “Bacterial Biotransformation” value in [7] was “Compound metabolized”; in [8], “Compound NOT metabolized”; in data set [9], “Compound metabolized”.

On to `CC(=O)OCC(CCn1cnc2cnc(N)nc21)COC(C)=O` [FAMCICLOVIR], for which the “Bacterial Biotransformation” value is recorded as “Compound metabolized” in data set [1]; “Compound NOT metabolized” in data set [2]; “Compound metabolized” in data set [3]; “Compound metabolized” in data set [4]; “Compound metabolized” in [5]; “Compound metabolized” in data set [6]. Besides, the “Bacterial Biotransformation” value in [7], in data set [8] and in [9] was “Compound metabolized” each time.

For `CC(C)(C)NC(=O)[C@H]1CC[C@H]2[C@@H]3CC[C@H]4NC(=O)C=C[C@]4(C)[C@H]3CC[C@]12C` [FINASTERIDE], the “Bacterial Biotransformation” value in data set [1], in data set [2], in data set [3], in [4], in data set [5] and in [6] was “Compound metabolized” throughout. In addition, the results for the “Bacterial Biotransformation” value in [7], in data set [8] and in data set [9] were “Compound metabolized”, “Compound NOT metabolized” and “Compound metabolized”, respectively.

For `COC1=C(OC)C(=O)C(CCCCCCCCCCO)=C(C)C1=O` [IDEBENONE], the “Bacterial Biotransformation” value in data set [1] is listed as “Compound metabolized”; in data set [2], “Compound metabolized”; in [3], “Compound metabolized”; in [4], “Compound metabolized”; in data set [5], “Compound NOT metabolized”; in data set [6], “Compound metabolized”. For the same molecule, the “Bacterial Biotransformation” value is “Compound NOT metabolized” in data set [7], “Compound metabolized” in [8] and “Compound metabolized” in data set [9].
